Source: PMC8312956, “T. cruzi DNA polymerase beta (Tcpolβ) is phosphorylated in vitro by CK1, CK2 and TcAUK1 leading to the potentiation of its DNA synthesis activity” (PLoS Neglected Tropical Diseases, 2021)

Legend:
[1] = molecular target: T1, TcAUK1 (Trypanosoma cruzi, UniProt Q4DKE3); experiment: […]-ATP phosphorylation of Tcpolβ, SDS-PAGE autoradiography; over […] decrease at […]; assay type: biochemical
T1 construct: gene Tc00.1047053508817.80; recombinant, expressed in E. coli (pET15b), renatured and purified

[2] = molecular target: T2, TcCK2α (Trypanosoma cruzi, UniProt Q4E340); experiment: […]-ATP phosphorylation of pCK2β, SDS-PAGE autoradiography; assay type: biochemical
T2 construct: gene Tc00.1047053508741.320; recombinant TcCK2α in hybrid CK2 holoenzyme; with S. pombe CK2β (pCK2β)
T2 sequence (P40232 whole entry): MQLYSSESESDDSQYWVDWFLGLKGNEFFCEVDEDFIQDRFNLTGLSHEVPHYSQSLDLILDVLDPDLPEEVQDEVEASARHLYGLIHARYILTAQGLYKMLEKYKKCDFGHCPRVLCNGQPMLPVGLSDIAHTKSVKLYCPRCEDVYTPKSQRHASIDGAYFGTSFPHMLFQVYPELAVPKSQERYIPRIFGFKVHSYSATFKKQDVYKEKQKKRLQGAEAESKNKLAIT
T2 sequence (Q4E340 entry or part of it): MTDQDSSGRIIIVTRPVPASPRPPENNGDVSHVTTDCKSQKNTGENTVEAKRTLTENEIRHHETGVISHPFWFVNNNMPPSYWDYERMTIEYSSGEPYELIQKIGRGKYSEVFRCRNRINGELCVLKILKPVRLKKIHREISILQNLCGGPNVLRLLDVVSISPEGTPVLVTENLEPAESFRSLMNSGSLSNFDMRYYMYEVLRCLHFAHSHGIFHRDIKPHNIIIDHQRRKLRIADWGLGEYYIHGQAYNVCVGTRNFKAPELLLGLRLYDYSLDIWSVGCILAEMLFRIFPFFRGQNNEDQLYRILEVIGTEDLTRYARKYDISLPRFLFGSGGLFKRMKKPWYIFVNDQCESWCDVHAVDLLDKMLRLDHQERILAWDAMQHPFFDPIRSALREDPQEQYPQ

T1 sequence (Q4DKE3 entry or part of it): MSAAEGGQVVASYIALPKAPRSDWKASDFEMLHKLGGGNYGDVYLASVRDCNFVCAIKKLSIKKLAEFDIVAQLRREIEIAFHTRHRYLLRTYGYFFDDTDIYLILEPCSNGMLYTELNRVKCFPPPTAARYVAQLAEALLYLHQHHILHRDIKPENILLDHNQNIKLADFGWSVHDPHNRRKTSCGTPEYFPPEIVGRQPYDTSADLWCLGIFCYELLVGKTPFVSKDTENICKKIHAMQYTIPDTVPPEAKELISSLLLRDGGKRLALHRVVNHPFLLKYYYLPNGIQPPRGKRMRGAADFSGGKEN

## O=C(Nc1cccc(Cl)c1)Nc1ncc(CCNc2ncnc3ccsc23)s1 [SNS314]
[1]
  32P-ATP phosphorylation of Tcpolβ, SDS-PAGE autoradiography; over 60% decrease a: ~ 48 nM

## Brc1c(Br)c(Br)c2[nH]nnc2c1Br [TBB, 4,5,6,7-tetrabromobenzotriazole]
[2]
  IC50: 500 to 1000 nM
